Measurements reported in PubChem BioAssay AID2415 (Johns Hopkins Ion Channel Center, 2010).

Assays:
Assay in all cases: potentiation across KCNQ channel subtypes – cell-based, manual patch clamp, mode of action, selectivity assay for KCNQ2 potentiator project, late-stage follow-up (AID 2415)
[1] = target: Potassium voltage-gated channel subfamily KQT member 4 (Homo sapiens) (UniProt P56696); conditions: KCNQ channels in transfected CHO cells, manual whole-cell patch clamp current; measured here: KCNQ4 current ratio; at 10 µM; stronger effect = higher value
Potassium voltage-gated channel subfamily KQT member 4 (Homo sapiens), sequence (P56696 whole entry, looked up): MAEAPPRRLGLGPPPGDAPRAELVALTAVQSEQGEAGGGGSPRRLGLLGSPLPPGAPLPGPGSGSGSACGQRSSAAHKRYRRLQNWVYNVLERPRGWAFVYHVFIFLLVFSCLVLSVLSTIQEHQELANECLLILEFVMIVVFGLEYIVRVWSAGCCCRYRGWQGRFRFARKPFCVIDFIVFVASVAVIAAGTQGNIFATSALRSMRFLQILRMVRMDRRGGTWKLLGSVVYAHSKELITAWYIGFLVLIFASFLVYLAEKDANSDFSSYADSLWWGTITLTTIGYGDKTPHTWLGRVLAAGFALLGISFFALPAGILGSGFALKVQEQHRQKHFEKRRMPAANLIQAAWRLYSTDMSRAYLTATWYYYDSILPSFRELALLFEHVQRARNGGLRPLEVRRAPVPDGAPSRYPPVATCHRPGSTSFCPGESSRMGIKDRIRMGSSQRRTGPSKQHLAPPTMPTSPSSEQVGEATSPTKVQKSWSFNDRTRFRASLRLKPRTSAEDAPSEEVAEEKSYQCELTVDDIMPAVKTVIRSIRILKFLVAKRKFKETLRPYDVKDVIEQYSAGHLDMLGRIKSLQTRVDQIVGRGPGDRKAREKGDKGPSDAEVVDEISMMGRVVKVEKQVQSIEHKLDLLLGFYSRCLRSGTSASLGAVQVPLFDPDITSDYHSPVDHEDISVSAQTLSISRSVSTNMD

[2] = target: Potassium voltage-gated channel subfamily KQT member 3 (Rattus norvegicus) (UniProt O88944); conditions: KCNQ channels in transfected CHO cells, manual whole-cell patch clamp current; measured here: KCNQ3 current ratio; at 10 µM; stronger effect = higher value
Potassium voltage-gated channel subfamily KQT member 3 (Rattus norvegicus), sequence (O88944 whole entry, looked up): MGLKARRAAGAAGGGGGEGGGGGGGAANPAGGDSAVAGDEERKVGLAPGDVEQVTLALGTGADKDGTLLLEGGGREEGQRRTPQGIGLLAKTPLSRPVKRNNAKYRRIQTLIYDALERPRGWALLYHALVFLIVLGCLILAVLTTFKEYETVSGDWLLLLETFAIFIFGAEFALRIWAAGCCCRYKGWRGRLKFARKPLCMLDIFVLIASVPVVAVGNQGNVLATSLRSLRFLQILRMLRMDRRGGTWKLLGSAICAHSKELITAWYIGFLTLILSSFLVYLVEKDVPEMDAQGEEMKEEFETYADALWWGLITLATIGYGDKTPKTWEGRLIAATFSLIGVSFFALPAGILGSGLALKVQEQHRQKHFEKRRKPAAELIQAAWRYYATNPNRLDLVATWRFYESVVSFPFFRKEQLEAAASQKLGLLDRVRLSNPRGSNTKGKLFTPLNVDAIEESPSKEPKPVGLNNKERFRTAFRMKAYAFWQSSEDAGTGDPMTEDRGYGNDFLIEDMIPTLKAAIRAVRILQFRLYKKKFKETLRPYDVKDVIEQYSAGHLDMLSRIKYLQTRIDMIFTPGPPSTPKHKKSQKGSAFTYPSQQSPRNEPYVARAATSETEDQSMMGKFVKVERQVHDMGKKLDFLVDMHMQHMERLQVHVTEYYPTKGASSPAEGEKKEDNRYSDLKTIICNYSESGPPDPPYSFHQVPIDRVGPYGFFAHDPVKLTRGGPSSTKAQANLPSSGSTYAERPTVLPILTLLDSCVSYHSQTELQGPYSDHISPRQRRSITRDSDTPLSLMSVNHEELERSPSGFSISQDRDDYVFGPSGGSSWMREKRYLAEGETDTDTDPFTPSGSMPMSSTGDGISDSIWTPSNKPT

[3] = target: Potassium voltage-gated channel subfamily KQT member 1 (Homo sapiens) (UniProt P51787); conditions: KCNQ channels in transfected CHO cells, manual whole-cell patch clamp current, at 10 µM
Potassium voltage-gated channel subfamily KQT member 1 (Homo sapiens), sequence (P51787 whole entry, looked up): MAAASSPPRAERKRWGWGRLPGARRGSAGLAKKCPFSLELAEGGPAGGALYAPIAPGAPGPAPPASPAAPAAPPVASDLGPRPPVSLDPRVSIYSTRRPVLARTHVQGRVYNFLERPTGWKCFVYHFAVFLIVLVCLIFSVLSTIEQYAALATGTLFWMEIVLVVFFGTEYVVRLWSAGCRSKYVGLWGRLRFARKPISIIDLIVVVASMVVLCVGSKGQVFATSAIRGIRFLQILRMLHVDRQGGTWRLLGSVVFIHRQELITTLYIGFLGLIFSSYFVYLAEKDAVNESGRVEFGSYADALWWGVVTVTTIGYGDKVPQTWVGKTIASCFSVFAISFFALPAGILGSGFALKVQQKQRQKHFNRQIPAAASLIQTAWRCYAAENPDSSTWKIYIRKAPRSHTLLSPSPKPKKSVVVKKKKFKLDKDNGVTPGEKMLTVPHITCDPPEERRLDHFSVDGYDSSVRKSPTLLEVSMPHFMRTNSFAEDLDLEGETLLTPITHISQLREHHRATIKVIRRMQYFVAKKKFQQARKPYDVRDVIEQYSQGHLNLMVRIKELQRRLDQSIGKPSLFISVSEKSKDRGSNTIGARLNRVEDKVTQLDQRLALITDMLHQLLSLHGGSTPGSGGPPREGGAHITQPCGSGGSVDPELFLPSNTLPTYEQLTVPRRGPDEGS

[4] = target: Potassium voltage-gated channel subfamily KQT member 5 (Homo sapiens) (UniProt Q9NR82); conditions: KCNQ channels in transfected CHO cells, manual whole-cell patch clamp current; measured here: KCNQ5 current ratio; at 10 µM; stronger effect = higher value
Potassium voltage-gated channel subfamily KQT member 5 (Homo sapiens), sequence (Q9NR82 whole entry, looked up): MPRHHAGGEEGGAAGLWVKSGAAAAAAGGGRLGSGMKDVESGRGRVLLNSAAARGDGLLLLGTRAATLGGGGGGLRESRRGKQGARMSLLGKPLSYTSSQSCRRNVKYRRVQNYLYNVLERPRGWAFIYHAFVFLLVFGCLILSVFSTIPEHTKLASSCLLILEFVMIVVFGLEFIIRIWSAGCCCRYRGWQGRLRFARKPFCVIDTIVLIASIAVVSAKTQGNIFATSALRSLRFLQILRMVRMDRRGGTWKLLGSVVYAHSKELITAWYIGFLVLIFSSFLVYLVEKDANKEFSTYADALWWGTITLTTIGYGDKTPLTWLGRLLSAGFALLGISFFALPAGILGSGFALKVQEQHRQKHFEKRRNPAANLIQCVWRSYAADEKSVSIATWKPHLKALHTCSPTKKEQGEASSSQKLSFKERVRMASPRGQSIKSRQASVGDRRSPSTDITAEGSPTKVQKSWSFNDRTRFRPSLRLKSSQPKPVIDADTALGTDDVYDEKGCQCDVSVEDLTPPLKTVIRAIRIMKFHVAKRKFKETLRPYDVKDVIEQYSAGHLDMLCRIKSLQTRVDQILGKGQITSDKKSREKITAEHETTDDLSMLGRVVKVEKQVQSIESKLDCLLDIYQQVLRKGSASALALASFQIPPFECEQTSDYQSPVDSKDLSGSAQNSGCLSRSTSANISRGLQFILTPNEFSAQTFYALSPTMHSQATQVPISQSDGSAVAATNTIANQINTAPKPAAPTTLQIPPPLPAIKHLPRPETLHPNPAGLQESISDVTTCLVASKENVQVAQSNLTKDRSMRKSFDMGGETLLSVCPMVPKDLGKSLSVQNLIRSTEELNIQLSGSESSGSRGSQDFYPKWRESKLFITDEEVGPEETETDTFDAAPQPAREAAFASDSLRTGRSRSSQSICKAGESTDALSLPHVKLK

[5] = target: Potassium voltage-gated channel subfamily KQT member 2 (Rattus norvegicus) (UniProt O88943); conditions: KCNQ channels in transfected CHO cells, manual whole-cell patch clamp current; measured here: KCNQ2 current ratio; at 10 µM; stronger effect = higher value
Potassium voltage-gated channel subfamily KQT member 2 (Rattus norvegicus), sequence (O88943 whole entry, looked up): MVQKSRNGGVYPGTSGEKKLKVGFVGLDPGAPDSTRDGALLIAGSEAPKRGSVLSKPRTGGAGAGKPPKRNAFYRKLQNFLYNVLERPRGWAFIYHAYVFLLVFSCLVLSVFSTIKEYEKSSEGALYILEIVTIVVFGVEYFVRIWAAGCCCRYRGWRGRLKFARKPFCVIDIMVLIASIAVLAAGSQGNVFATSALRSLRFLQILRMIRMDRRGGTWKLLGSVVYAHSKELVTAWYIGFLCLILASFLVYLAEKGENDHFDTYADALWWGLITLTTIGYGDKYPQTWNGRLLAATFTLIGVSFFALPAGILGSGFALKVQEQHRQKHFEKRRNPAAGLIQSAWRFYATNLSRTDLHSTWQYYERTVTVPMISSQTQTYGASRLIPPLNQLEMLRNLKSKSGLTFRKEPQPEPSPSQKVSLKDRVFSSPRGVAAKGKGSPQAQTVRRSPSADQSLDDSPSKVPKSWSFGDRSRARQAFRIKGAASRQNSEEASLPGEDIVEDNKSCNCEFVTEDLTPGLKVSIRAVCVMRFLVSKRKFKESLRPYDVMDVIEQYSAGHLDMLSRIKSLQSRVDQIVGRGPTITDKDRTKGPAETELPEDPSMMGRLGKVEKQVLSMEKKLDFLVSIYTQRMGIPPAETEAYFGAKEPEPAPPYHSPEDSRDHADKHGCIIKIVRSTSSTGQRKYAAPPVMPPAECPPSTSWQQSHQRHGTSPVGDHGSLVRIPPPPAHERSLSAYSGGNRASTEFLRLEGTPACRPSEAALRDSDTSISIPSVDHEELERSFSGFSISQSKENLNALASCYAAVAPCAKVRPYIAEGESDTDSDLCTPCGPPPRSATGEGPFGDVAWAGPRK

O=C(Nc1ccc(Cl)nc1)c1ccc(F)cc1
current ratio I/I0 [1]: 2.4 | current ratio I/I0 [2]: 1 | current ratio I/I0 ([3]; stronger effect = higher value): 0.9 | deactivation tau ([3]; measured here: KCNQ2 deactivation time constant, stronger effect = higher value): 51.8 ms | V1/2 ([3]; measured here: KCNQ2 half activation voltage, stronger effect = lower value): -16.6 mV | current ratio I/I0 [4]: 3.5 | current ratio I/I0 [5]: 1.9
